Results reported in patent US20230117205A1, “B7-H4 ANTIBODY-DRUG CONJUGATES FOR THE TREATMENT OF CANCER” (SEAGEN INC., priority 2021, published 2023).

Tests used:
[1] = tested on: MDA-MB-468 xenograft model; assay: MDA-MB-468 xenograft, Study MDAMB468-6; type: in vivo, NSG mice; settings: 3 mg/kg, three weekly doses, i.p.
Experimental: Tumor volume was measured twice weekly until study day 80.
Female NSG mice were implanted with 1×10^6 MDA-MB-468 cells in 25% Matrigel H C (Corning #354248) subcutaneously. Once tumor volumes reached 100 mm^3, mice were randomized into treatment groups of 5 mice each and dosed with 0.3, 1, or 3 mg/kg every seven days for three total doses (q7dx3). Twenty-four hours prior to receiving each ADC dose, each animal was treated with 10 mg/kg hIVIG (Grifolds). Tumor volumes were measured twice per week, animals were euthanized when tumor volume reached 700-1000 mm^3. Stock concentrations of ADC were diluted to desired concentration (with 0.01% Tween20 in PBS) and injected i.p. into each treatment group

[2] = tested on: B7-H4 expression on OVCAR3 tumors; assay: IHC of B7-H4 on treated OVCAR3 xenograft tumors; type: in vivo, SCID mice; settings: OVCAR3 tumors after treatment
Experimental: Antigen retrieval was performed using a Decloaking Chamber NxGen Biocare and the 110° C. program with Diva Retrieval solution. Slides were stained on the IntelliPath Automated stainer per the following protocol: Remove hot containers from the decloaking chamber and rinse in deionized water. Place slides in TBST prior to adding to IntelliPath. Hydrate slides on stainer prior to automation Add 300 uL/slide Peroxidaze (Biocare #PX968) and incubate 10 minutes. Wash slides in TBST. Add 300 uL/slide Sniper block (Biocare #B5966) and incubate 10 minutes. Blot off blocking solution. Add 300 uL/slide primary antibody and incubate 1 hour. Wash slides twice in TBST. Add 300 uL/slide HRP polymer and incubate 30 minutes. Wash slides twice in TBST. Add 300 uL/slide DAB (Vector #sk-4103) and incubate 5 minutes. Wash in TBST. Add 300 uL/slide hematoxylin and incubate 2 minutes. Wash in deionized water. Dehydrate slides by placing them in the oven for 30 minutes. Place coverslip on slides. Images were analyzed using Halo image analysis software (Indica Labs). The H-score was calculated according to the following equation: (3×% Strong Signal)+(2×% Moderate Signal)+(Weak Signal). […]

[3] = tested on: F4/80+ macrophages in MDA-MB-468 xenograft tumors; assay: IHC for F4/80+ macrophages in MDA-MB-468 xenograft tumors; type: in vivo, NSG mice; settings: single 3 mg/kg dose; 7 days after treatment
Experimental: Specifically, female NSG mice were implanted with 1×10^6 MDA-MB-468 cells in 25% Matrigel H C subcutaneously. Once tumor volumes reached ˜250-300 mm^3, mice were randomized into treatment groups of 6 mice each and treated with a single 3 mg/kg dose of ADC or mAb, or vehicle control (20 mM Histidine buffer, pH 6.0) injected intraperitoneally (i.p.). Stock concentrations of ADC were diluted to desired concentration with 20 mM Histidine buffer, pH 6.0 or and stock concentration of mAb were diluted to desired concentration with 0.01% Tween20 in PBS. Twenty-four hours prior to dosing, each animal was treated with 10 mg/kg hIVIG. One week following treatment, tumors were harvested, cut in half, and processed for RNAseq (frozen at −80° C.) or formalin-fixed and paraffin-embedded for immunohistochemical (IHC) analysis.
For IHC, FFPE blocks were sectioned at 4 μm and sections were placed on charged slides. Slides were baked for 1 hr at 60° C. […]
Scanned images were analyzed with Halo image analysis software v. 3.1.1076 (Indica Labs), using the area quantification algorithm for CD11c and F4/80 and the cytonuclear algorithm for all other antibodies. […] Percent area of positive tissue, tumor and stroma were determined. […]

Substance: SGN-B7H4V: ADC of fully human IgG1 anti-B7-H4 mAb conjugated to monomethyl auristatin E (MMAE) via a protease-cleavable valine-citrulline linker (vedotin)
- anti-tumor activity (tumor volume) [1]: transient regression of tumor volumes in all mice
- impact on tumor B7-H4 expression [2]: did not have a significant impact
- proportion of F4/80+ macrophages in tumor nest and stroma [3]: increase in the proportion of F4/80+ macrophages
